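Tested at 5 concentrations; 48 h exposure; 96-well plates; endpoints linearly interpolated, else capped at highest concentration. The concentration for full growth arrest is given as TGI.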

Common to all, as to assay: NCI anticancer screen, dose series, 48 h
Experiment [1] concerns BT-549 breast.
Experiment [2] has as its system CAKI-1 renal.
Experiment [3] relates to HCC-2998 colon.
The subject of experiment [4] is LOX IMVI melanoma.
The test system of experiment [5] is MDA-MB-231 breast.
Experiment [6] concerns MDA-N.
For experiment [7], the system named is SF-295 CNS.
Experiment [8] deals with SK-OV-3 ovarian.
Experiment [9] deals with SNB-75 CNS.
Experiment [10] has as its system U251 CNS.

With `Cc1c(O)c(OC2OC(CO)C(O)C(O)C2O)cc2c1CC[C@@H]1C2(C)C(=O)C[C@]2(C)[C@@H]([C@@](C)(O)C(O)/C=C/C(C)(C)O)[C@H](O)C[C@@]12C` (some centres undefined), the TGI in experiment [1], in experiment [2], in experiment [3], in experiment [4], in experiment [5] and in experiment [6] was above 100 µM in each case. Moreover, the TGI in experiment [7], in experiment [8], in experiment [9] and in [10] was above 100 µM throughout.
As for `C=CCNC1=C2C[C@@H](C)C[C@@H](OC)[C@H](OC(=O)CN(C)C)[C@H](C)/C=C(\C)[C@@H](OC(N)=O)[C@H](OC)/C=C\C=C(/C)C(=O)NC(=CC1=O)C2=O`, the TGI stood at 24 µM in experiment [1]; 31.9 µM in [2]; 0.284 µM in [3]; 8.19 µM in experiment [4]; 10.5 µM in experiment [5]; 13.3 µM in experiment [6]. Also, the TGI is 13.5 µM in experiment [7], 20 µM in experiment [8], 0.909 µM in experiment [9] and 19.7 µM in [10].
As for `CCCSc1cc(Cl)c(C)cc1S(=O)(=O)n1cc[nH]c1=O`, the TGI in [1], in [2], in experiment [3], in experiment [4], in experiment [5] and in experiment [6] was above 100 µM each time. Besides, the TGI in experiment [7], in experiment [8], in experiment [9] and in experiment [10] was above 100 µM each time.
For `CCCCCCCCCCCCCCCCOP(=O)(O)OP(=O)(O)OCC1OC(n2ccc(N)nc2=O)CC1O` (centres undefined), the TGI in [1], in experiment [2], in experiment [3], in [4], in experiment [5] and in [6] was above 100 µM throughout. In addition, the TGI in experiment [7], in experiment [8], in experiment [9] and in [10] was above 100 µM throughout.
For `O=C(OCc1ccccc1)N1CCNCCNCC1`, the TGI in experiment [1], in [2], in experiment [3], in experiment [4], in experiment [5] and in experiment [6] was above 100 µM throughout. Also, the TGI in experiment [7] and in [10] was above 100 µM in each case.
As to `O=C1CCC(=O)N1CNc1ccc2c(c1)Sc1ccccc1O2`, the TGI was 93.4 µM in experiment [1]; above 100 µM in [2]; 68.9 µM in experiment [4]; above 100 µM in [5]; above 100 µM in [6]; above 100 µM in experiment [7]. For the same compound, the TGI in experiment [10] was above 100 µM.
Take `C#CCCCC(=C)C[C@H](OCc1ccccc1)[C@H]1OC(=O)[C@@H]1C`: the TGI was above 100 µM in experiment [1]; 46.5 µM in experiment [2]; above 100 µM in experiment [3]; 63.3 µM in [5]; above 100 µM in [6]; above 100 µM in experiment [7]. The TGI in experiment [8], in experiment [9] and in [10] was above 100 µM in each case.
As to `COC(=O)c1cc(NC2OCC(OC(C)=O)C(OC(C)=O)C2OC(C)=O)nc(SC)c1C(=O)OC` (centres undefined), the TGI in experiment [1], in [2], in experiment [3], in experiment [4], in experiment [5] and in experiment [6] was above 100 µM each time. For the same compound, the TGI in [7], in experiment [9] and in experiment [10] was above 100 µM each time.
`COC1Cc2c(C)c(OC(C)=O)c3cccnc3c2O1` (centres undefined): the TGI in [1] is 41.5 µM; in experiment [2] it was above 100 µM; in experiment [3] it was above 100 µM; in experiment [5] it was above 100 µM; in [6] it was 46.3 µM; in [7] it was 93.3 µM. The TGI is above 100 µM in [8], 31.7 µM in experiment [9] and above 100 µM in experiment [10].
Regarding `O=C(O)C(Cc1ccc(O)cn1)NC(=O)C(F)(F)F` (centres undefined), the TGI in [1], in experiment [2], in [3], in experiment [4], in experiment [5] and in experiment [6] was above 100 µM each time. The TGI in [7] and in experiment [10] was above 100 µM throughout.
With `COc1ccc(C2Oc3c(cccc3OC)C=C2[N+](=O)[O-])cc1OC` (centres undefined), the TGI in experiment [1] was 31 µM; in experiment [2], 38.3 µM; in experiment [4] it was 20.5 µM; in experiment [5], above 100 µM; in experiment [6], above 100 µM; in [7] it was 71.7 µM. The figures for the TGI in experiment [8], in experiment [9] and in experiment [10] were 17.9 µM, above 100 µM and 15.2 µM, respectively.
In the case of `NC(=O)/N=C(\N)NC(=O)c1ccccc1`, the TGI in experiment [1], in [2], in [3], in [4], in experiment [5] and in experiment [6] was above 100 µM throughout. Further, the TGI in experiment [7] and in experiment [10] was above 100 µM each time.
On to `CC1CCCOc2ccc(cc2)C=Nc2ccc(cc2)CCc2ccc(cc2)N=Cc2ccc(cc2)OCCC1` (centres undefined), for which the TGI in [1], in experiment [2], in [3], in [4], in experiment [5] and in experiment [6] was above 100 µM throughout. Further, the TGI in [7], in experiment [9] and in experiment [10] was above 100 µM each time.
Take `COC(=O)c1cc(Br)c(C(=O)C(Cl)(Cl)Cl)[nH]1`: the TGI in experiment [1], in experiment [2], in experiment [4], in experiment [5], in experiment [6] and in experiment [7] was above 100 µM each time. For the same compound, the TGI in [8], in [9] and in experiment [10] was above 100 µM each time.
As for `CCOC(=O)c1sc2nc(SC)nc(Nc3ccc4c(c3)OCCCO4)c2c1N`, the TGI in experiment [1], in [2], in experiment [3], in experiment [4], in experiment [5] and in experiment [6] was above 100 µM in each case. Besides, the TGI is 53.9 µM in experiment [7], above 100 µM in [8] and above 100 µM in experiment [10].

The record behind these values is PubChem BioAssay (NCI).
